According to ChEMBL document CHEMBL3885861, “Open TG-GATES”:

Species on record: Rattus norvegicus
Experiment: Open TG-GATES - Regimen: Single
Type: toxicity, organism-based, Sprague-Dawley
Set-up: regimen Single, gender Male, age 6 weeks
Details: in vivo, po, 0 mg/kg, route gavage, dose level Control; for APTT / Bas / Eos / Fbg / Hb / Ht / Lym / MCH / MCHC / MCV / Mono / Neu / PT / Plat / RBC / Ret / WBC: tissue Blood; for KIDNEY_L / KIDNEY_R / KIDNEY_TOTAL: tissue Kidney; for LIVER: tissue Liver; for A/G / ALP / ALT / AST / BUN / CRE / Ca / Cl / DBIL / GLC / IP / K / LDH / Na / PL / RALB / TBIL / TC / TG / TP / gamma-GTP: tissue Plasma

## C[C@H]1C(=O)O[C@@H]2CCN3CC=C(COC(=O)[C@](C)(O)[C@]1(C)O)[C@H]23 [MONOCROTALINE]
3 h
  TERMINAL_BW: 217.7 g
  APTT: 20.3 s
  Bas: 0%
  Eos: 0.8%
  Fbg: 316 mg/dL
  Hb: 12.9 g/dL
  Ht: 37.7%
  Lym: 76.4%
  MCH: 21.8 pg
  MCHC: 34.2%
  MCV: 63.8 fL
  Mono: 3.2%
  Neu: 19%
  PT: 16.8 s
  Plat: 116.9 x10_4/uL
  RBC: 591.6 x10_4/ul
  Ret: 9.3%
  WBC: 86.4 x10_2/uL
  KIDNEY_L: 1 g
  KIDNEY_R: 1 g
  KIDNEY_TOTAL: 2 g
  LIVER: 10.4 g
  A/G: 1.3
  ALP: 1563.2 IU/L
  ALT: 38 IU/L
  AST: 66.8 IU/L
  BUN: 13.4 mg/dL
  CRE: 0.2 mg/dL
  Ca: 10.7 mg/dL
  Cl: 106.6 meq/L
  DBIL: 0.002 mg/dL
  GLC: 185.6 mg/dL
  IP: 8.3 mg/dL
  K: 4 meq/L
  LDH: 161 IU/L
  Na: 142.6 meq/L
  PL: 141.8 mg/dL
  RALB: 3.1 g/dL
  TBIL: 0.028 mg/dL
  TC: 78.2 mg/dL
  TG: 58.6 mg/dL
  TP: 5.4 g/dL
  gamma-GTP: 1 IU/L
6 h
  TERMINAL_BW: 200.2 g
  APTT: 20.2 s
  Bas: 0%
  Eos: 1%
  Fbg: 316 mg/dL
  Hb: 13.4 g/dL
  Ht: 39.5%
  Lym: 81%
  MCH: 21.5 pg
  MCHC: 33.9%
  MCV: 63.2 fL
  Mono: 2.8%
  Neu: 14.8%
  PT: 16.2 s
  Plat: 112.4 x10_4/uL
  RBC: 626.4 x10_4/ul
  Ret: 7.8%
  WBC: 94 x10_2/uL
  KIDNEY_L: 0.9 g
  KIDNEY_R: 0.9 g
  KIDNEY_TOTAL: 1.9 g
  LIVER: 8.5 g
  A/G: 1.3
  ALP: 1365.8 IU/L
  ALT: 37.6 IU/L
  AST: 71.6 IU/L
  BUN: 11.4 mg/dL
  CRE: 0.1 mg/dL
  Ca: 10.6 mg/dL
  Cl: 106.8 meq/L
  DBIL: 0.004 mg/dL
  GLC: 176 mg/dL
  IP: 9 mg/dL
  K: 4.2 meq/L
  LDH: 230.6 IU/L
  Na: 142.6 meq/L
  PL: 132.4 mg/dL
  RALB: 3.1 g/dL
  TBIL: 0.026 mg/dL
  TC: 75.2 mg/dL
  TG: 56 mg/dL
  TP: 5.5 g/dL
  gamma-GTP: 1.2 IU/L
9 h
  TERMINAL_BW: 207.2 g
  APTT: 19.8 s
  Bas: 0%
  Eos: 1%
  Fbg: 300.8 mg/dL
  Hb: 13.3 g/dL
  Ht: 38.8%
  Lym: 73%
  MCH: 21.4 pg
  MCHC: 34.2%
  MCV: 62.7 fL
  Mono: 2.6%
  Neu: 22.4%
  PT: 16.2 s
  Plat: 110.9 x10_4/uL
  RBC: 618.6 x10_4/ul
  Ret: 8.7%
  WBC: 92.3 x10_2/uL
  KIDNEY_L: 0.9 g
  KIDNEY_R: 1 g
  KIDNEY_TOTAL: 1.9 g
  LIVER: 8.6 g
  A/G: 1.3
  ALP: 1373.4 IU/L
  ALT: 38 IU/L
  AST: 67.8 IU/L
  BUN: 10.4 mg/dL
  CRE: 0.2 mg/dL
  Ca: 10.4 mg/dL
  Cl: 106.8 meq/L
  DBIL: 0.004 mg/dL
  GLC: 174.2 mg/dL
  IP: 9.1 mg/dL
  K: 4.1 meq/L
  LDH: 184.2 IU/L
  Na: 142 meq/L
  PL: 137 mg/dL
  RALB: 3.1 g/dL
  TBIL: 0.028 mg/dL
  TC: 83.2 mg/dL
  TG: 50.4 mg/dL
  TP: 5.4 g/dL
  gamma-GTP: 1 IU/L
24 h
  TERMINAL_BW: 221.9 g
  APTT: 22 s
  Bas: 0%
  Eos: 1%
  Fbg: 299 mg/dL
  Hb: 12.9 g/dL
  Ht: 37.9%
  Lym: 83%
  MCH: 20.8 pg
  MCHC: 34.1%
  MCV: 61.1 fL
  Mono: 2.8%
  Neu: 12.6%
  PT: 16.5 s
  Plat: 119.4 x10_4/uL
  RBC: 620.4 x10_4/ul
  Ret: 8.4%
  WBC: 85.2 x10_2/uL
  KIDNEY_L: 1 g
  KIDNEY_R: 1 g
  KIDNEY_TOTAL: 2 g
  LIVER: 10.5 g
  A/G: 1.3
  ALP: 1787.6 IU/L
  ALT: 44.4 IU/L
  AST: 74 IU/L
  BUN: 18.4 mg/dL
  CRE: 0.2 mg/dL
  Ca: 10.7 mg/dL
  Cl: 105 meq/L
  DBIL: 0.006 mg/dL
  GLC: 187.6 mg/dL
  IP: 6.8 mg/dL
  K: 4.2 meq/L
  LDH: 227.2 IU/L
  Na: 141.2 meq/L
  PL: 150.4 mg/dL
  RALB: 3.2 g/dL
  TBIL: 0.008 mg/dL
  TC: 78.2 mg/dL
  TG: 101.6 mg/dL
  TP: 5.6 g/dL
  gamma-GTP: 1 IU/L
